Data reported in patent publication US4980349A, “Sulphonamides derived from diarylmethanes, the processes for preparing them and pharmaceutical compositions containing them” (SANOFI, priority 1986, dated 1990).
Read-outs that look alike come from different tables or passages of the source.

Key:
[1] = test system: rat hind foot carragheenin-induced oedema; experiment: Carragheenin-induced oedema test; type: in vivo; details: 3 h, first experiment, Table X, read-out: percentage inhibition of the inflammation; for change in vivo at 25 mg/kg: 25 mg/kg oral; for change in vivo at 50 mg/kg: 50 mg/kg oral; for change in vivo at 100 mg/kg: 100 mg/kg oral
Experimental: In this test, 10 rats are used per test compound of the invention. Control batches of 10 rats also receive either the comparative compound (ketoprofen) or exclusively an NaCl solution.
The compounds of the invention are administered orally (stomach tube) one hour before the injection of carragheenin.
The carragheenin is suspended at a concentration of 1% in a 0.9% isotonic sodium chloride solution. The volume injected into the rat's foot is 0.20 ml.
The volume of the foot is measured before the injection and 3 hours later. The antagonistic effect of the products towards carragheenin is reflected in the inhibition of the volume of the oedema compared with control rats. The latter receive only isotonic NaCl solution under identical conditions.

[2] = test system: rat hind foot kaolin-induced oedema; experiment: Kaolin-induced arthritis test, first experiment (decrease in inflammation, foot volume); type: in vivo; details: 1 h before kaolin, Table IX, read-out: percentage decrease in the inflammation; for change in vivo at 25 mg/kg: 25 mg/kg oral; for change in vivo at 50 mg/kg: 50 mg/kg oral; for change in vivo at 100 mg/kg: 100 mg/kg oral
Experimental: The […] of 0.05 ml of a sterile 10% strength suspension of kaolin into the metatarsal flexor sheath of the hind foot of a rat initially induces an oedematous reaction. An inflammatory arthritis then forms.
The early oedematous reaction appears from the first hour, and reaches its maximum between the fourth hour and the sixth hour. This is the manifestation of interest. The assessment of the volume of the foot enables the action of substances on the oedematous reaction to be studied. The measurements are carried out using a Giono and Chevilard plethysmometer.
The test products are administered orally (stomach tube) one hour before the injection of the kaolin.
The results are expressed as a percentage decrease in the inflammation in the treated animals compared with a control series of animals.
The batches are of 10 animals per dose and 10 control animals.
The figures shown represent the mean of 10 animals.

[3] = test system: foreign-body (sponge) granuloma in rats; experiment: Experimental granuloma induced by foreign body, histological study; type: in vivo, Wistar rats; details: 8 days, Table XI
Experimental: This test consists in studying the subacute cellular phase which is developed in the 8 days which follow the implantation of a foreign body, a sponge of non-resorbable plastic, in the dorsal subcutaneous connective tissue in rats.
The granulomas formed are removed 8 days after the implantation; a histological study is carried out after fixing the tissue and staining sections with hematein/ eosin. The observation is more especially concerned with the cell population of the primary phase of the formation of the granulation tissue: the reticulohistocytic cells, lymphocytes and more especially the macrophages.
The animals used are Wistar rats weighing 120-140 g and of the same origin, maintained under the same conditions of housing throughout the treatment (8 days).
The compounds of the invention are administered orally, in a gum suspension, in the morning in a fasted state, using an oesophageal tube.
After 8 days of treatment, the rats are sacrificed by decapitation and the granulomas removed and prepared for the purpose of histological examination.
The experiment conditions are as follows:
The animals are distributed in batches of 10;
Each test product is administered at 2 doses, of 50 and 100 mg, respectively, to 2 batches of 10 animals;
Ketoprofen is used by way of reference product at the same 2 doses and under the same conditions; and
A batch of 10 control animals receives no treatment.
In this experiment, on the one hand a histological study of the granulomas is performed by sampling on day 8 (results recorded in Table XIa), and on the other hand a study of the weight of the granulomas was performed 10 days after the implantation (results recorded in Table XIb).

[4] = test system: pain threshold of brewer's yeast inflamed rat hind foot; experiment: Randall and Sellitto's test (analgesic activity); type: in vivo
Experimental: Inflammation increases the sensitivity to pain, in particular to pressure, and analgesics raise the threshold of the sensitivity.
The inflammation is obtained by injecting 0.1 ml of a 20% strength aqueous suspension of brewer's yeast under the plantar aponeurosis of one of the hind feet. […] The pain threshold is assessed in terms of the force necessary and sufficient to initiate a characteristic reaction of withdrawing the foot.
The sensitivity to pain of the inflamed foot reaches a plateau 4 hours after the injection of the brewer's yeast, and then remains stable until the 6th hour. The pain threshold of the inflamed foot in control rats weighing 140 g is reached for pressures of 50 to 60 g, whereas it is around 160 g for the intact foot.
The action of the substance administered orally to series of 10 rats is expressed in terms of the percentage increase in the mean pain threshold, compared with that measured in the rats of a control series of 10 animals which have not received a compound of the invention.
The test products are administered orally (stomach tube) one hour before the injection of brewer's yeast.
The comparative compound used is ketoprofen.

[5] = test system: biosynthesis of leukotrienes B4 (LTB4), human polymorphonuclear leukocytes; experiment: Biosynthesis of LTB4, isomers and oxidized metabolites in human polymorphonuclear leukocytes; type: cell-based; details: Leukocyte, first experiment
Experimental: Polymorphonuclear leukocytes are isolated from human blood and used during the 6 hours following the withdrawal. The viability of the cells is checked by trypan blue exclusion.
5×10^6 cells are incubated for 10 minutes at 37° C. in the presence of the test product dissolved in DMSO, and are stimulated with ionophore A 23187 (Galbiochem, 10 μM) in PBS buffer at pH 7.4, Ca^2+ and Mg^2+ =1 μM.
100 ng of prostaglandin B2 (PGB2), dissolved in methanol, are added at the end of the reaction to act as an internal standard.
On centrifugation, the culture supernatant is withdrawn. The latter is retrieved under argon and stored at -80° C. until analysed by HPLC.
This analysis is carried out by injecting 250 μl onto a 5 μm ODS ultrasphere column (Beckmann), with a gradient of acetonitrile (20-80%) in water, at pH 7.4.
The amounts of the different products which absorb at 269 nm, i.e. leukotrienes B4 (LTB4), isomers of LTB4 and oxidized metabolites of LTB4, are estimated by comparison with the internal standard.
The test product is used at a concentration of 40 μM.
They are expressed either as a percentage inhibition, or as a percentage increase in the production of LTB4, isomers of LTB4 and oxidized metabolites of LTB4 (designated by +).
The experimental model is the same as that described in Section 2.1. Other products are tested by comparison with the compound of the invention no. 1574, used as a control.

[6] = both doses (50 and 100 mg/kg) oral
[7] = 25 mg/kg oral, first experiment, Table XII, read-out: percentage increase in the mean pain threshold
[8] = 50 mg/kg oral, first experiment, Table XII, read-out: percentage increase in the mean pain threshold
[9] = 100 mg/kg oral, first experiment, Table XII, read-out: percentage increase in the mean pain threshold
[10] = read-out: Isomers of LTB4: percentage inhibition (+ : percentage increase in the production)
[11] = read-out: LTB4: percentage inhibition (+ : percentage increase in the production)
[12] = read-out: Oxidized metabolites of LTB4: percentage inhibition (+ : percentage increase in the production)

Row | Structure (SMILES) | change in vivo at 25 mg/kg [1] | change in vivo at 50 mg/kg [1] | change in vivo at 100 mg/kg [1] | change in vivo at 25 mg/kg [2] | change in vivo at 50 mg/kg [2] | change in vivo at 100 mg/kg [2] | histological study of the granuloma [3, 6] | change in vivo at 25 mg/kg [4, 7] | change in vivo at 50 mg/kg [4, 8] | change in vivo at 100 mg/kg [4, 9] | inhibition at 40 µM [5, 10] | inhibition at 40 µM [5, 11] | inhibition at 40 µM [5, 12] | other results
1 | O=C(c1ccc(Cl)cc1)c1ccccc1S(=O)(=O)NCCCN1CCOCC1 [Compound 1410] | -15% | -25% | -48% | -18% | -32% | -57% | inflammatory reaction is attenuated | 19% | 37% | 58% | – | – | – | –
2 | O=C(O)CCCCCNS(=O)(=O)c1ccc(Cl)cc1C(=O)c1ccccc1Cl [Compound 1570] | -20% | -29% | -40% | -10% | -25% | -52% | – | 15% | 25% | 53% | – | – | – | histological study of the granuloma ([3]; 50 mg/kg oral): anti-inflammatory activity is exhibited; histological study of the granuloma ([3]; 100 mg/kg oral): distinct
3 | O=C(O)CCCCCCCCCCCNS(=O)(=O)c1ccc(C(=O)c2ccccc2)cc1 [Compound 1687] | -25% | -30% | -48% | -23% | -28% | -50% | – | 25% | 35% | 50% | 0% | 16% | -30% | –
4 | O=C(O)CCCCCCCCCCNS(=O)(=O)c1cccc(C(=O)c2cc(S(=O)(=O)NCCCCCCCCCCC(=O)O)ccc2Cl)c1 [Compound 1688] | -25% | -32% | -50% | -25% | -28% | -48% | – | 25% | 32% | 50% | -35% | 35% | 20% | –
5 | CC(C(=O)O)c1cccc(C(=O)c2ccccc2)c1 (stereo not shown) [Ketoprofen, ketoprofen, reference compound] | – | – | – | -30% | -51% | -73% | very substantial decrease | – | – | – | – | – | – | change in vivo at 25 mg/kg ([1]; po): -25%; change in vivo at 50 mg/kg ([1]; po): -45%; change in vivo at 100 mg/kg ([1]; po): -65%; change in vivo at 25 mg/kg ([4]; po, read-out: percentage increase in the mean pain threshold, 25 mg/kg oral, first experiment, Table XII): 22%; change in vivo at 25 mg/kg ([4]; po, read-out: percentage increase in the mean pain threshold, 25 mg/kg oral, second experiment, Table XIIa): 50%; change in vivo at 50 mg/kg ([4]; po, read-out: percentage increase in the mean pain threshold, 50 mg/kg oral, first experiment, Table XII): 55%; change in vivo at 50 mg/kg ([4]; po, read-out: percentage increase in the mean pain threshold, 50 mg/kg oral, second experiment, Table XIIa): 55%; change in vivo at 100 mg/kg ([4]; po, read-out: percentage increase in the mean pain threshold, 100 mg/kg oral, first experiment, Table XII): 78%; change in vivo at 100 mg/kg ([4]; po, read-out: percentage increase in the mean pain threshold, 100 mg/kg oral, second experiment, Table XIIa): 58%
